The values below come from US7928098B2, “Therapeutic and/or preventive agents for a sleep disorder” (Kyowa Hakko Kirin Co., Ltd., priority 2005, dated 2011).

Usually melting point stands for the temperature of the solid-liquid transition.

In turn, `O=C(CN1CCSC1)Nc1nc(-c2ccco2)c(C(=O)c2ccccn2)s1` [Compound 189, N-[4-(2-Furyl)-5-(pyridin-2-ylcarbonyl)thiazol-2-yl]-2-(1,3-thiazolidin-3-yl)acetamide] returned a melting point of 153 to 155 °C.

Regarding `O=C(CN1CCSCC1)Nc1nc(-c2ccco2)c(C(=O)c2ccccn2)s1` [Compound 190, N-[4-(2-Furyl)-5-(pyridin-2-ylcarbonyl)thiazol-2-yl]-2-thiomorpholinoacetamide], the melting point was 148 to 149 °C.

On to `COc1cccc(C(=O)c2sc(NC(=O)c3ccncc3)nc2-c2ccco2)n1` [Compound 191, N-[4-(2-Furyl)-5-(6-methoxypyridin-2-ylcarbonyl)thiazol-2-yl]pyridine-4-carboxamide], for which the melting point lay within 247 to 250 °C.

In turn, `Cc1cccc(C(=O)c2sc(NC(=O)c3ccncc3)nc2-c2ccco2)n1` [Compound 192, N-[4-(2-Furyl)-5-(6-methylpyridin-2-ylcarbonyl)thiazol-2-yl]pyridine-4-carboxamide] showed a melting point of 238 to 241 °C.

The compound `Cc1ccc(C(=O)c2sc(NC(=O)c3ccncc3)nc2-c2ccco2)nc1` [Compound 202, N-[4-(2-Furyl)-5-(5-methylpyridin-2-ylcarbonyl)thiazol-2-yl]pyridine-4-carboxamide] yielded a melting point of 255 to 257 °C.

For `Cc1ccnc(C(=O)c2sc(NC(=O)c3ccncc3)nc2-c2ccco2)c1` [Compound 203, N-[4-(2-Furyl)-5-(4-methylpyridin-2-ylcarbonyl)thiazol-2-yl]pyridine-4-carboxamide], the melting point lay in the range of 240 to 245 °C.

For `O=C(Nc1nc(-c2ccco2)c(C(=O)c2cccnc2)s1)c1ccncc1` [Compound 211, N-[4-(2-Furyl)-5-(pyridin-3-ylcarbonyl)thiazol-2-yl]pyridine-4-carboxamide], the melting point was 245 to 248 °C.

`O=C(c1cccnc1)c1sc(NC(=O)C2CC2)nc1-c1ccco1` [Compound 212, N-[4-(2-Furyl)-5-(pyridin-3-ylcarbonyl)thiazol-2-yl]cyclopropanecarboxamide] registered a melting point of 231 to 233 °C.

The compound `N#Cc1ccc(C(=O)Nc2nc(-c3ccco3)c(C(=O)c3cccnc3)s2)cc1` [Compound 213, 4-Cyano-N-[4-(2-furyl)-5-(pyridin-3-ylcarbonyl)thiazol-2-yl]benzamide] returned a melting point of 288 to 290 °C.

Consider `O=C(Nc1nc(-c2ccco2)c(C(=O)c2cccnc2)s1)c1ccco1` [Compound 214, N-[4-(2-Furyl)-5-(pyridin-3-ylcarbonyl)thiazol-2-yl]furan-2-carboxamide], for which the melting point fell in the range of 234 to 236 °C.

`Cc1ncccc1C(=O)c1sc(NC(=O)c2ccncc2)nc1-c1ccco1` [Compound 217, N-[4-(2-Furyl)-5-(2-methylpyridin-3-ylcarbonyl)thiazol-2-yl]pyridine-4-carboxamide] came in with a melting point of 230 to 234 °C.

On to `Cc1ccc(C(=O)c2sc(NC(=O)c3ccncc3)nc2-c2ccco2)cn1` [Compound 220, N-[4-(2-Furyl)-5-(2-methylpyridin-5-ylcarbonyl)thiazol-2-yl]pyridine-4-carboxamide], for which the melting point is 230 to 232 °C (dec.).

In turn, `Cc1ccc(C(=O)c2sc(NC(=O)c3ccc(C#N)cc3)nc2-c2ccco2)cn1` [Compound 221, 4-Cyano-N-[4-(2-furyl)-5-(2-methylpyridin-5-ylcarbonyl)thiazol-2-yl]benzamide] yielded a melting point of 261 to 265 °C.

The compound `Cc1ccc(C(=O)c2sc(NC(=O)c3ccco3)nc2-c2ccco2)cn1` [Compound 222, N-[4-(2-Furyl)-5-(2-methylpyridin-5-ylcarbonyl)thiazol-2-yl]furan-2-carboxamide] returned a melting point of 197 to 209 °C.

In the case of `Cc1ccc(C(=O)c2sc(NC(=O)c3ccoc3)nc2-c2ccco2)cn1` [Compound 223, N-[4-(2-Furyl)-5-(2-methylpyridin-5-ylcarbonyl)thiazol-2-yl]furan-3-carboxamide], the melting point lay in the range of 229 to 231 °C.

As for `COc1ccc(C(=O)c2sc(NC(=O)c3ccncc3)nc2-c2ccco2)cn1` [Compound 226, N-[4-(2-Furyl)-5-(2-methoxypyridin-5-ylcarbonyl)thiazol-2-yl]pyridine-4-carboxamide], the melting point is 246 to 257 °C (dec.).

For `CN(C)c1ccc(C(=O)c2sc(NC(=O)c3ccncc3)nc2-c2ccco2)cn1` [Compound 230, N-{5-[2-(Dimethylamino)pyridin-5-ylcarbonyl]-4-(2-furyl)thiazol-2-yl}pyridine-4-carboxamide], the melting point is 260 to 265 °C (dec.).

With `O=C(Nc1nc(-c2ccco2)c(C(=O)c2ccc(N3CCOCC3)nc2)s1)c1ccncc1` [Compound 231, N-[4-(2-Furyl)-5-(2-morpholinopyridin-5-ylcarbonyl)thiazol-2-yl]pyridine-4-carboxamide], the melting point lay in the range of 195 to 220 °C.

Compound `CN1CCN(c2ccc(C(=O)c3sc(NC(=O)c4ccncc4)nc3-c3ccco3)cn2)CC1` [Compound 232, N-{4-(2-Furyl)-5-[2-(4-methylpiperazin-1-yl)pyridin-5-ylcarbonyl]thiazol-2-yl}pyridine-4-carboxamide] yielded a melting point of 195 to 205 °C.

`O=C(Nc1nc(-c2ccco2)c(C(=O)c2ccc(N3CCC(O)CC3)nc2)s1)c1ccncc1` [Compound 233, N-{4-(2-Furyl)-5-[2-(4-hydroxypiperidino)pyridin-5-ylcarbonyl]thiazol-2-yl}pyridine-4-carboxamide] came in with a melting point of 264 to 268 °C.

Turning to `O=C(Nc1nc(-c2ccco2)c(C(=O)c2ccncc2)s1)c1ccncc1` [Compound 236, N-[4-(2-Furyl)-5-(pyridin-4-ylcarbonyl)thiazol-2-yl]pyridine-4-carboxamide], the melting point is 276 to 285 °C.

On to `Cc1cc(C(=O)c2sc(NC(=O)c3ccncc3)nc2-c2ccco2)ccn1` [Compound 239, N-[4-(2-Furyl)-5-(2-methylpyridin-4-ylcarbonyl)thiazol-2-yl]pyridine-4-carboxamide], for which the melting point was in the range of 223 to 225 °C.

The compound `Cc1cc(C(=O)Nc2nc(-c3ccco3)c(C(=O)c3ccnc(C)c3)s2)ccn1` [Compound 240, N-[4-(2-Furyl)-5-(2-methylpyridin-4-ylcarbonyl)thiazol-2-yl]-2-methylpyridine-4-carboxamide] registered a melting point of 205 to 229 °C.

Take `COc1cc(C(=O)c2sc(NC(=O)c3ccncc3)nc2-c2ccco2)ccn1` [Compound 243, N-[4-(2-Furyl)-5-(2-methoxypyridin-4-ylcarbonyl)thiazol-2-yl]pyridine-4-carboxamide]: the melting point was 237 to 239 °C.

For the compound `O=C(Nc1nc(-c2ccco2)c(C(=O)c2ccnc(N3CCOCC3)c2)s1)c1ccncc1` [Compound 246, N-[4-(2-Furyl)-5-(2-morpholinopyridin-4-ylcarbonyl)thiazol-2-yl]pyridine-4-carboxamide], the melting point is 270 to 273 °C.

`O=C(Nc1nc(-c2ccco2)c(C(=O)c2ccco2)s1)c1ccncc1` [Compound 249, N-[4-(Furan-2-yl)-5-(furan-2-ylcarbonyl)thiazol-2-yl]pyridine-4-carboxamide] displayed a melting point of 245 to 248 °C.

The compound `Cc1ccc(C(=O)c2sc(NC(=O)c3ccncc3)nc2-c2ccco2)o1` [Compound 250, N-[4-(2-Furyl)-5-(5-methylfuran-2-ylcarbonyl)thiazol-2-yl]pyridine-4-carboxamide] displayed a melting point of 185 to 189 °C.

With `O=C(Nc1nc(-c2ccco2)c(C(=O)c2ccoc2)s1)c1ccncc1` [Compound 253, N-[4-(Furan-2-yl)-5-(furan-3-ylcarbonyl)thiazol-2-yl]pyridine-4-carboxamide], the melting point is 217 to 231 °C.

The compound `O=C(Nc1nc(-c2ccco2)c(C(=O)c2cccs2)s1)c1ccncc1` [Compound 254, N-[4-(2-Furyl)-5-(thiophen-2-ylcarbonyl)thiazol-2-yl]-pyridine-4-carboxamide] yielded a melting point of 208 to 210 °C.

Take `O=C(Nc1nc(-c2ccco2)c(C(=O)c2nccs2)s1)c1ccncc1` [Compound 255, N-[4-(2-Furyl)-5-(thiazol-2-ylcarbonyl)thiazol-2-yl]pyridine-4-carboxamide]: the melting point fell in the range of 228 to 240 °C.

For `Cc1cnc(C(=O)c2sc(NC(=O)c3ccncc3)nc2-c2ccco2)s1` [Compound 256, N-[4-(2-Furyl)-5-(5-methylthiazol-2-ylcarbonyl)thiazol-2-yl]pyridine-4-carboxamide], the melting point is 275 to 277 °C (dec.).

As to `Cc1csc(C(=O)c2sc(NC(=O)c3ccncc3)nc2-c2ccco2)n1` [Compound 257, N-[4-(2-Furyl)-5-(4-methylthiazol-2-ylcarbonyl)thiazol-2-yl]pyridine-4-carboxamide], the melting point lay within 250 to 255 °C.

On to `Cc1nc(C(=O)c2sc(NC(=O)c3ccncc3)nc2-c2ccco2)sc1C` [Compound 258, N-[5-(4,5-Dimethylthiazol-2-ylcarbonyl)-4-(2-furyl)thiazol-2-yl]pyridine-4-carboxamide], for which the melting point is 270 to 272 °C (dec.).

Take `O=C(Nc1nc(-c2ccco2)c(C(=O)c2cc[nH]c2)s1)c1ccncc1` [Compound 260, N-[4-(2-Furyl)-5-(pyrrol-3-ylcarbonyl)thiazol-2-yl]pyridine-4-carboxamide]: the melting point was in the range of 259 to 260 °C.

Regarding `Cn1ccc(C(=O)c2sc(NC(=O)c3ccncc3)nc2-c2ccco2)c1` [Compound 261, N-[4-(2-Furyl)-5-(1-methylpyrrol-3-ylcarbonyl)thiazol-2-yl]pyridine-4-carboxamide], the melting point lay within 209 to 211 °C.

`CCn1ccc(C(=O)c2sc(NC(=O)c3ccncc3)nc2-c2ccco2)c1` [Compound 262, N-[5-(1-Ethylpyrrol-3-ylcarbonyl)-4-(2-furyl)thiazol-2-yl]pyridine-4-carboxamide] registered a melting point of 127 to 134 °C.

Take `O=C(Nc1nc(-c2ccco2)c(C(=O)c2ccn(Cc3ccccc3)c2)s1)c1ccncc1` [Compound 263, N-[5-(1-Benzylpyrrol-3-ylcarbonyl)-4-(2-furyl)thiazol-2-yl]pyridine-4-carboxamide]: the melting point is 175 to 178 °C.
